From patent US4987067A, “Maltooligosaccharide derivatives and reagents for determination of amylase activity” (Yoshitomi Pharmaceutical Industries, Ltd., priority 1987, dated 1991)

Legend:
[1] = Dissolution of substrate in the reagents of Example 3; assay type: physicochemical; conditions: reagents of Example 3 without their substrates, 50 mM Good Buffer pH 7.0; substrate 2 mM in Example 3
Description: An attempt was made to use the substrates listed below instead of the substrates in Example 3, but the former substrates were not dissolved in the reagents in Example 3 (excluding substrates in Example 3).

α-amylase = test: Change in absorbance per minute at 400 nm with sample serum (indication of amylase activity); assay type: biochemical; conditions: 3 ml reagent added to sample serum, 5-6 minutes at 37° C.
Experimental: (§1) With this reagent, variation in absorbance was determined in a similar manner to Example 2. A 3 ml quantity of the reagent was added to […] of sample serum and allowed to stand for 5-6 minutes at 37° C. and thereafter, the variation in absorbance at 400 nm was determined and the change in absorbance per one minute which is an indication of amylase activity was calculated The variation in blank value of the reagent with time and the change in absorbance per minute are shown in Table 2 below.

[2] = tested on: α-Glucosidase, β-Glucosidase; test: Variation in blank value of reagent with time (absorbance at 400 nm), reagent with α-glucosidase and β-glucosidase; assay type: biochemical; conditions: substrate 2 mM
Experimental: Reagents having the following composition were prepared.
50 mM Good Buffer (pH 7.0)
Substrate (see Table 1) 2 mM
Immediately after the preparation of the reagents, after 10 minutes, 20 minutes and 30 minutes, the absorbance of each reagent at 400 nm was determined (3 ml of reagent sample; 37° C.).
The reagent having the following composition was prepared:
(§2) Substrate (see Table 2) 2 mM

[3] = tested on: α-Glucosidase, β-Glucosidase, Glucoamylase; test: Variation in blank value of reagent with time (absorbance at 400 nm), reagent with α-glucosidase, β-glucosidase and glucoamylase; assay type: biochemical; conditions: Table 2, glucoamylase added (10 U/ml), substrate 2 mM; for Absorbance at 400 nm (blank value), on reaction initiation: pH 7.0, α-glucosidase 80 U/ml, β-glucosidase 10 U/ml; for Absorbance at 400 nm (blank value), after 10 min. / Absorbance at 400 nm (blank value), after 20 min. / Absorbance at 400 nm (blank value), after 30 min.: pH 7.0
Experimental: as §1
The reagent of the following composition was prepared:
as §2

[4] = Table 1, 50 mM Good Buffer pH 7.0, α-glucosidase 80 U/ml, β-glucosidase 10 U/ml, 37° C., immediately after preparation
[5] = Table 1, pH 7.0, α-glucosidase 80 U/ml, β-glucosidase 10 U/ml, 37° C.
[6] = Table 2, no glucoamylase, pH 7.0

SMILES	Solubility of substrate in the reagents in Example 3 [1]	Change in absorbance (α-amylase; glucoamylase added (10 U/ml))	Absorbance at 400 nm (blank value), on reaction initiation [2, 4]	Absorbance at 400 nm (blank value), after 10 min. [2, 5]	Absorbance at 400 nm (blank value), after 20 min. [2, 5]	Absorbance at 400 nm (blank value), after 30 min. [2, 5]	Absorbance at 400 nm (blank value), on reaction initiation [3]	Absorbance at 400 nm (blank value), after 10 min. [3]	Absorbance at 400 nm (blank value), after 20 min. [3]	Absorbance at 400 nm (blank value), after 30 min. [3]	also measured
O=[N+]([O-])c1ccc(O[C@@H]2O[C@H](CO)[C@@H](O[C@H]3O[C@H](CO)[C@@H](O[C@H]4O[C@H](CO)[C@@H](O[C@H]5O[C@H](CO)[C@@H](O[C@H]6O[C@@H]7COC(c8ccccc8)O[C@H]7[C@H](O)[C@H]6O)[C@H](O)[C@H]5O)[C@H](O)[C@H]4O)[C@H](O)[C@H]3O)[C@H](O)[C@H]2O)c(Cl)c1 (stereo partly drawn) [Benzylidene 2-chloro-4-nitrophenyl-β-maltopentaoside]	not dissolved										
CC(=O)CC1OC[C@H]2O[C@H](O[C@H]3[C@H](O)[C@@H](O)[C@@H](O[C@H]4[C@H](O)[C@@H](O)[C@@H](O[C@H]5[C@H](O)[C@@H](O)[C@@H](O[C@H]6[C@H](O)[C@@H](O)[C@H](Oc7ccc([N+](=O)[O-])cc7Cl)O[C@@H]6CO)O[C@@H]5CO)O[C@@H]4CO)O[C@@H]3CO)[C@H](O)[C@@H](O)[C@@H]2O1 (stereo partly drawn) [Example 2, 3-ketobutylidene 2-chloro-4-nitrophenyl-β-maltopentaoside]		0.157 per minute	0.049	0.049	0.049	0.050	0.051	0.051	0.051	0.052	Change in absorbance (α-amylase; no glucoamylase): 0.123 per minute; Absorbance at 400 nm (blank value), on reaction initiation ([2]; Table 2, no glucoamylase, pH 7.0, α-glucosidase 80 U/ml, β-glucosidase 10 U/ml): 0.050; Absorbance at 400 nm (blank value), after 10 min. [2, 6]: 0.051; Absorbance at 400 nm (blank value), after 20 min. [2, 6]: 0.051; Absorbance at 400 nm (blank value), after 30 min. [2, 6]: 0.051
O=[N+]([O-])c1ccc(O[C@@H]2O[C@H](CO)[C@@H](O[C@H]3O[C@H](CO)[C@@H](O[C@H]4O[C@H](CO)[C@@H](O[C@H]5O[C@H](CO)[C@@H](O[C@H]6O[C@H](CO)[C@@H](O)[C@H](O)[C@H]6O)[C@H](O)[C@H]5O)[C@H](O)[C@H]4O)[C@H](O)[C@H]3O)[C@H](O)[C@H]2O)c(Cl)c1 [compound 1, 2-chloro-4-nitrophenyl-β-maltopentaoside, reference compound]		0.136 per minute	0.251	0.273	0.293	0.323	0.132	0.162	0.192	0.223	

Continued, in another order:

Solubility of substrate in the reagents in Example 3 [1]	SMILES	Change in absorbance (α-amylase; glucoamylase added (10 U/ml))	Absorbance at 400 nm (blank value), on reaction initiation [2, 4]	Absorbance at 400 nm (blank value), after 10 min. [2, 5]	Absorbance at 400 nm (blank value), after 20 min. [2, 5]	Absorbance at 400 nm (blank value), after 30 min. [2, 5]	Absorbance at 400 nm (blank value), on reaction initiation [3]	Absorbance at 400 nm (blank value), after 10 min. [3]	Absorbance at 400 nm (blank value), after 20 min. [3]	Absorbance at 400 nm (blank value), after 30 min. [3]	also measured
not dissolved	CC1(C)OC[C@H]2O[C@H](O[C@H]3[C@H](O)[C@@H](O)[C@@H](O[C@H]4[C@H](O)[C@@H](O)[C@@H](O[C@H]5[C@H](O)[C@@H](O)[C@@H](O[C@H]6[C@H](O)[C@@H](O)[C@H](Oc7ccc([N+](=O)[O-])cc7Cl)O[C@@H]6CO)O[C@@H]5CO)O[C@@H]4CO)O[C@@H]3CO)[C@H](O)[C@@H](O)[C@@H]2O1 [Isopropylidene 2-chloro-4-nitrophenyl-β-maltopentaoside]										
not dissolved	O=[N+]([O-])c1ccc(O[C@@H]2O[C@H](CO)[C@@H](O[C@H]3O[C@H](CO)[C@@H](O[C@H]4O[C@H](CO)[C@@H](O[C@H]5O[C@H](CO)[C@@H](O[C@H]6O[C@@H]7COCO[C@H]7[C@H](O)[C@H]6O)[C@H](O)[C@H]5O)[C@H](O)[C@H]4O)[C@H](O)[C@H]3O)[C@H](O)[C@H]2O)c(Cl)c1 [Methylidene 2-chloro-4-nitrophenyl-β-maltopentaoside]										
